From PubChem BioAssay (NCI)
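Results reflect a 48-hour exposure of cells in 96-well plates to compound at five concentrations. TGI: total growth inhibition.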

Legend:
Assay in all cases: DTP human tumour cell line panel, 48 h
786-0 renal = system: 786-0 renal
A498 renal = system: A498 renal
A549 NSCLC = system: A549 NSCLC
ACHN renal = system: ACHN renal
BT-549 breast = system: BT-549 breast
CAKI-1 renal = system: CAKI-1 renal
CCRF-CEM leukemia = system: CCRF-CEM leukemia
COLO 205 colon = system: COLO 205 colon
DU-145 prostate = system: DU-145 prostate
EKVX NSCLC = system: EKVX NSCLC
HCT-116 colon = system: HCT-116 colon
HCT-15 colon = system: HCT-15 colon
HL-60(TB) leukemia = system: HL-60(TB) leukemia
HOP-62 NSCLC = system: HOP-62 NSCLC
HOP-92 NSCLC = system: HOP-92 NSCLC
HS 578T breast = system: HS 578T breast
HT29 colon = system: HT29 colon
IGROV1 ovarian = system: IGROV1 ovarian
K-562 leukemia = system: K-562 leukemia
KM12 colon = system: KM12 colon
LOX IMVI melanoma = system: LOX IMVI melanoma
M14 melanoma = system: M14 melanoma
MALME-3M melanoma = system: MALME-3M melanoma
MCF7 breast = system: MCF7 breast
MDA-MB-231 breast = system: MDA-MB-231 breast
MDA-MB-435 = system: MDA-MB-435
MDA-N = system: MDA-N
MOLT-4 leukemia = system: MOLT-4 leukemia
NCI-H23 lung = system: NCI-H23 lung
NCI-H460 lung = system: NCI-H460 lung
NCI-H522 lung = system: NCI-H522 lung
NCI/ADR-RES ovarian = system: NCI/ADR-RES ovarian
OVCAR-3 ovarian = system: OVCAR-3 ovarian
OVCAR-4 ovarian = system: OVCAR-4 ovarian
OVCAR-5 ovarian = system: OVCAR-5 ovarian
OVCAR-8 ovarian = system: OVCAR-8 ovarian
PC-3 prostate = system: PC-3 prostate
RPMI-8226 leukemia = system: RPMI-8226 leukemia
RXF 393 renal = system: RXF 393 renal
SF-268 CNS = system: SF-268 CNS
SF-295 CNS = system: SF-295 CNS
SK-MEL-2 melanoma = system: SK-MEL-2 melanoma
SK-MEL-28 melanoma = system: SK-MEL-28 melanoma
SK-MEL-5 melanoma = system: SK-MEL-5 melanoma
SK-OV-3 ovarian = system: SK-OV-3 ovarian
SN12C renal = system: SN12C renal
SNB-19 CNS = system: SNB-19 CNS
SNB-75 CNS = system: SNB-75 CNS
SR leukemia = system: SR leukemia
SW-620 colon = system: SW-620 colon
T-47D breast = system: T-47D breast
TK-10 renal = system: TK-10 renal
U251 CNS = system: U251 CNS
UACC-257 melanoma = system: UACC-257 melanoma
UACC-62 melanoma = system: UACC-62 melanoma
UO-31 renal = system: UO-31 renal

Measured: TGI

C=C(Br)CN(C)CC(=C)Br
> 100 µM: 786-0 renal | A498 renal | A549 NSCLC | ACHN renal | BT-549 breast | CAKI-1 renal | CCRF-CEM leukemia | COLO 205 colon | DU-145 prostate | EKVX NSCLC | HCT-116 colon | HCT-15 colon | HL-60(TB) leukemia | HOP-62 NSCLC | HOP-92 NSCLC | HS 578T breast | HT29 colon | IGROV1 ovarian | K-562 leukemia | KM12 colon | LOX IMVI melanoma | M14 melanoma | MALME-3M melanoma | MCF7 breast | MDA-MB-231 breast | MDA-MB-435 | MDA-N | MOLT-4 leukemia | NCI-H23 lung | NCI-H460 lung | NCI-H522 lung | NCI/ADR-RES ovarian | OVCAR-3 ovarian | OVCAR-4 ovarian | OVCAR-5 ovarian | OVCAR-8 ovarian | PC-3 prostate | RPMI-8226 leukemia | RXF 393 renal | SF-268 CNS | SF-295 CNS | SK-MEL-2 melanoma | SK-MEL-28 melanoma | SK-MEL-5 melanoma | SK-OV-3 ovarian | SN12C renal | SNB-19 CNS | SNB-75 CNS | SR leukemia | SW-620 colon | T-47D breast | TK-10 renal | U251 CNS | UACC-257 melanoma | UACC-62 melanoma | UO-31 renal
